# Patent publication US20090239841A1, “Diaryl Ureas as CB1 Antagonists” (priority 2004, published 2009)
# Molecular target: T1, hCB1 (Homo sapiens, UniProt P21554)
# T1 construct: made in house; host or cells: Sf9 insect cells (baculovirus), P2 membranes
# Experiment: Agonist-induced GTP binding (GTPγ35S) assay at CB1, Example 8
# Type: biochemical
# Conditions: IC50 at CB1, determined as described in Example 8; read-out: IC50
# Outline: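 Membranes from Sf9 cells co-expressing hCB1 and heterotrimeric G-protein (10 μg protein) in Tris pH 7.4 buffer with 5 μM GDP. Test compounds (10^−10–10^−5 M) competed against 1 nM CP55,940 with […] GTPγ35S, 60 min at room temperature. Filter-bound radioactivity by scintillation, expressed as percent above basal.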
# T1 sequence (P21554 whole entry): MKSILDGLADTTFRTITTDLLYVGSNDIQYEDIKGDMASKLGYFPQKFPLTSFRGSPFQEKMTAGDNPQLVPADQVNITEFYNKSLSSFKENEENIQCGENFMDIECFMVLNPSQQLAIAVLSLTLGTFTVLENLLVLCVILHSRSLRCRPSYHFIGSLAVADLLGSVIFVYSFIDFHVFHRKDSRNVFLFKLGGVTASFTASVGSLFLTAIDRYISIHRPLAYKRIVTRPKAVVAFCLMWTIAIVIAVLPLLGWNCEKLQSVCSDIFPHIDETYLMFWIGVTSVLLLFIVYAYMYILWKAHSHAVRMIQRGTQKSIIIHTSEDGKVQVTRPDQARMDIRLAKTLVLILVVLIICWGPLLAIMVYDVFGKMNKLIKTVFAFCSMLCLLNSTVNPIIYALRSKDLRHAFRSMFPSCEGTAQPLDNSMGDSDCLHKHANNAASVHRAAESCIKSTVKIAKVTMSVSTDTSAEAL
row,SMILES,IC50 [nM]
1,"CCc1cccc(NC(=O)Nc2ccc(C)cc2)c1 [Compound 324, 1-(3-ethylphenyl)-3-(4-methylphenyl)urea]",< 2000
2,"CCc1ccc(NC(=O)Nc2ccc(F)cc2)cc1 [Compound 325, 1-(4-ethylphenyl)-3-(4-fluorophenyl)urea]",< 2000
3,"CC(C)c1ccc(NC(=O)Nc2ccc(F)cc2)cc1 [Compound 326, 1-(4-fluorophenyl)-3-(4-isopropylphenyl)urea]",< 2000
4,"CCCc1ccc(NC(=O)Nc2cccc(F)c2)cc1 [Compound 327, 1-(3-fluorophenyl)-3-(4-propylphenyl)urea]",< 2000
5,"CCCc1ccc(NC(=O)Nc2ccc(F)cc2)cc1 [Compound 328, 1-(4-fluorophenyl)-3-(4-propylphenyl)urea]",< 2000
6,"CCc1ccc(NC(=O)Nc2cccc(CC)c2)cc1 [Compound 329, 1-(3-ethylphenyl)-3-(4-ethylphenyl)urea]",< 2000
7,"CCc1ccc(NC(=O)Nc2cccc(Cl)c2)cc1 [Compound 330, 1-(3-chlorophenyl)-3-(4-ethylphenyl)urea]",< 2000
8,"CCc1ccc(NC(=O)Nc2ccc(C(C)C)cc2)cc1 [Compound 332, 1-(4-ethylphenyl)-3-(4-isopropylphenyl)urea]",< 2000
9,"CC(C)c1ccc(NC(=O)Nc2ccc(Cl)cc2)cc1 [Compound 333, 1-(4-chlorophenyl)-3-(4-isopropylphenyl)urea]",< 2000
10,"CCCc1ccc(NC(=O)Nc2cccc(CC)c2)cc1 [Compound 334, 1-(3-ethylphenyl)-3-(4-propylphenyl)urea]",< 2000
11,"CCCc1ccc(NC(=O)Nc2cccc(Cl)c2)cc1 [Compound 335, 1-(3-chlorophenyl)-3-(4-propylphenyl)urea]",< 2000
12,"CCCc1ccc(NC(=O)Nc2ccc(Cl)cc2)cc1 [Compound 336, 1-(4-chlorophenyl)-3-(4-propylphenyl)urea]",< 2000
13,"CC(=O)c1ccc(NC(=O)Nc2ccc(C)cc2)cc1 [Compound 338, 1-(4-acetylphenyl)-3-(4-methylphenyl)urea]",< 2000
14,"CC(=O)c1ccc(NC(=O)Nc2cccc(F)c2)cc1 [Compound 339, 1-(4-acetylphenyl)-3-(3-fluorophenyl)urea]",< 2000
15,"CC(=O)c1ccc(NC(=O)Nc2ccc(F)cc2)cc1 [Compound 340, 1-(4-acetylphenyl)-3-(4-fluorophenyl)urea]",< 2000
16,"CCc1cccc(NC(=O)Nc2ccc(C(C)=O)cc2)c1 [Compound 341, 1-(4-acetylphenyl)-3-(3-ethylphenyl)urea]",< 2000
17,"CC(=O)c1ccc(NC(=O)Nc2cccc(Cl)c2)cc1 [Compound 342, 1-(4-acetylphenyl)-3-(3-chlorophenyl)urea]",< 2000
18,"CC(=O)c1ccc(NC(=O)Nc2ccc(Cl)cc2)cc1 [Compound 344, 1-(4-acetylphenyl)-3-(4-chlorophenyl)urea]",< 2000
19,"CC(C)c1ccc(NC(=O)Nc2ccc(C#N)cc2)cc1 [Compound 345, 1-(4-cyanophenyl)-3-(4-isopropylphenyl)urea]",< 2000

row,SMILES,IC50 [nM]
1,"CC(C)c1ccc(NC(=O)Nc2cccc(C#N)c2)cc1 [Compound 346, 1-(3-cyanophenyl)-3-(4-isopropylphenyl)urea]",< 2000
2,"CC(=O)c1cccc(NC(=O)Nc2ccc(C(C)C)cc2)c1 [Compound 347, 1-(3-acetylphenyl)-3-(4-isopropylphenyl)urea]",< 2000
3,"CC(=O)c1ccc(NC(=O)Nc2ccc(C(C)C)cc2)cc1 [Compound 348, 1-(4-acetylphenyl)-3-(4-isopropylphenyl)urea]",< 2000
4,"CCCc1ccc(NC(=O)Nc2ccc(C#N)cc2)cc1 [Compound 349, 1-(4-cyanophenyl)-3-(4-propylphenyl)urea]",< 2000
5,"CCCc1ccc(NC(=O)Nc2cccc(C#N)c2)cc1 [Compound 350, 1-(3-cyanophenyl)-3-(4-propylphenyl)urea]",< 2000
6,"CCCc1ccc(NC(=O)Nc2cccc(C(C)=O)c2)cc1 [Compound 351, 1-(3-acetylphenyl)-3-(4-propylphenyl)urea]",< 2000
7,"CCCc1ccc(NC(=O)Nc2ccc(C(C)=O)cc2)cc1 [Compound 352, 1-(4-acetylphenyl)-3-(4-propylphenyl)urea]",< 2000
8,"CC(=O)c1ccc(NC(=O)Nc2cccc(Br)c2)cc1 [Compound 353, 1-(4-acetylphenyl)-3-(3-bromophenyl)urea]",< 2000
9,"CCOc1cccc(NC(=O)Nc2ccc(C)cc2)c1 [Compound 354, 1-(3-ethoxyphenyl)-3-(4-methylphenyl)urea]",< 2000
10,"CCOc1cccc(NC(=O)Nc2cccc(F)c2)c1 [Compound 355, 1-(3-ethoxyphenyl)-3-(3-fluorophenyl)urea]",< 2000
11,"CCOc1cccc(NC(=O)Nc2ccc(F)cc2)c1 [Compound 356, 1-(3-ethoxyphenyl)-3-(4-fluorophenyl)urea]",< 2000
12,"CCOc1ccc(NC(=O)Nc2cccc(F)c2)cc1 [Compound 357, 1-(4-ethoxyphenyl)-3-(3-fluorophenyl)urea]",< 2000
13,"CCOc1ccc(NC(=O)Nc2ccc(F)cc2)cc1 [Compound 358, 1-(4-ethoxyphenyl)-3-(4-fluorophenyl)urea]",< 2000
14,"COCc1ccc(NC(=O)Nc2ccc(C)cc2)cc1 [Compound 359, 1-[4-(methoxymethyl)phenyl]-3-(4-methylphenyl)urea]",< 2000
15,"COCc1ccc(NC(=O)Nc2cccc(F)c2)cc1 [Compound 360, 1-(3-fluorophenyl)-3-[4-(methoxymethyl)phenyl]urea]",< 2000
16,"CCCOc1ccc(NC(=O)Nc2cccc(F)c2)cc1 [Compound 361, 1-(3-fluorophenyl)-3-(4-propoxyphenyl)urea]",< 2000
17,"CCCOc1ccc(NC(=O)Nc2ccc(F)cc2)cc1 [Compound 362, 1-(4-fluorophenyl)-3-(4-propoxyphenyl)urea]",< 2000
18,"CC(C)Oc1cccc(NC(=O)Nc2cccc(F)c2)c1 [Compound 363, 1-(3-fluorophenyl)-3-(3-isopropoxyphenyl)urea]",< 2000

# Now from value to molecule:
row,IC50 [nM],SMILES
1,< 2000,"CC(C)Oc1cccc(NC(=O)Nc2ccc(F)cc2)c1 [Compound 364, 1-(4-fluorophenyl)-3-(3-isopropoxyphenyl)urea]"
2,< 2000,"Cc1cccc(NC(=O)Nc2ccc(OC(C)C)cc2)c1 [Compound 365, 1-(4-isopropoxyphenyl)-3-(3-methylphenyl)urea]"
3,< 2000,"Cc1ccc(NC(=O)Nc2ccc(OC(C)C)cc2)cc1 [Compound 366, 1-(4-isopropoxyphenyl)-3-(4-methylphenyl)urea]"
4,< 2000,"CC(C)Oc1ccc(NC(=O)Nc2cccc(F)c2)cc1 [Compound 367, 1-(3-fluorophenyl)-3-(4-isopropoxyphenyl)urea]"
5,< 2000,"CC(C)Oc1ccc(NC(=O)Nc2ccc(F)cc2)cc1 [Compound 368, 1-(4-fluorophenyl)-3-(4-isopropoxyphenyl)urea]"
6,< 2000,"Cc1cccc(NC(=O)Nc2cccc(OC(F)F)c2)c1 [Compound 369, 1-[3-(difluoromethoxy)phenyl]-3-(3-methylphenyl)urea]"
7,< 2000,"Cc1ccc(NC(=O)Nc2cccc(OC(F)F)c2)cc1 [Compound 370, 1-[3-(difluoromethoxy)phenyl]-3-(4-methylphenyl)urea]"
8,< 2000,"O=C(Nc1cccc(F)c1)Nc1cccc(OC(F)F)c1 [Compound 371, 1-[3-(difluoromethoxy)phenyl]-3-(3-fluorophenyl)urea]"
9,< 2000,"O=C(Nc1ccc(F)cc1)Nc1cccc(OC(F)F)c1 [Compound 372, 1-[3-(difluoromethoxy)phenyl]-3-(4-fluorophenyl)urea]"
10,< 2000,"O=C(Nc1ccc(F)cc1)Nc1ccc(OC(F)F)cc1 [Compound 373, 1-[4-(difluoromethoxy)phenyl]-3-(4-fluorophenyl)urea]"
11,< 2000,"CCOc1cccc(NC(=O)Nc2ccccc2)c1 [Compound 374, 1-(3-ethoxyphenyl)-3-phenylurea]"
12,< 2000,"CC(C)Oc1ccc(NC(=O)Nc2ccccc2)cc1 [Compound 375, 1-(4-isopropoxyphenyl)-3-phenylurea]"
13,< 2000,"O=C(Nc1ccccc1)Nc1cccc(OC(F)F)c1 [Compound 376, 1-[3-(difluoromethoxy)phenyl]-3-phenylurea]"
14,< 2000,"Cc1ccccc1NC(=O)Nc1cccc(OC(F)F)c1 [Compound 377, 1-[3-(difluoromethoxy)phenyl]-3-(2-methylphenyl)urea]"
15,< 2000,"CCc1ccccc1NC(=O)Nc1cccc(OC(F)F)c1 [Compound 378, 1-[3-(difluoromethoxy)phenyl]-3-(2-ethylphenyl)urea]"
16,< 2000,"CCc1ccc(NC(=O)Nc2ccc(OC)cc2)cc1 [Compound 382, 1-(4-ethylphenyl)-3-(4-methoxyphenyl)urea]"
17,< 2000,"COc1ccc(NC(=O)Nc2ccc(Cl)cc2)cc1 [Compound 383, 1-(4-chlorophenyl)-3-(4-methoxyphenyl)urea]"
18,< 2000,"CCOc1cccc(NC(=O)Nc2cccc(CC)c2)c1 [Compound 384, 1-(3-ethoxyphenyl)-3-(3-ethylphenyl)urea]"
19,< 2000,"CCOc1cccc(NC(=O)Nc2ccc(CC)cc2)c1 [Compound 385, 1-(3-ethoxyphenyl)-3-(4-ethylphenyl)urea]"
20,< 2000,"CCOc1cccc(NC(=O)Nc2ccc(Cl)cc2)c1 [Compound 386, 1-(4-chlorophenyl)-3-(3-ethoxyphenyl)urea]"
21,< 2000,"CCOc1ccc(NC(=O)Nc2cccc(CC)c2)cc1 [Compound 387, 1-(4-ethoxyphenyl)-3-(3-ethylphenyl)urea]"
22,< 2000,"CCOc1ccc(NC(=O)Nc2ccc(CC)cc2)cc1 [Compound 388, 1-(4-ethoxyphenyl)-3-(4-ethylphenyl)urea]"
23,< 2000,"CCOc1ccc(NC(=O)Nc2cccc(Cl)c2)cc1 [Compound 389, 1-(3-chlorophenyl)-3-(4-ethoxyphenyl)urea]"
